# Assay results reported in paper PMC3739763 (PLoS ONE, 2013).
# Like-named read-outs stand apart in the source and are kept apart here.
# Experiments:
# [1] = parameters: method as in PMID 12675874; conditions: cited from earlier work
# [2] = parameters: method as in PMID 1643710, PMID 11721007; conditions: cited from earlier work
# [3] = molecular target: T1, Human serum albumin (HSA) (Homo sapiens, UniProt P02768); assay: Differential scanning calorimetry (DSC) thermostability of HSA in presence of HA; format: binding
# T1 construct: I (residues 1–195), II (196–383), III (384–585); purchased Sigma Aldrich A1887
# T1 sequence (P02768 25-609): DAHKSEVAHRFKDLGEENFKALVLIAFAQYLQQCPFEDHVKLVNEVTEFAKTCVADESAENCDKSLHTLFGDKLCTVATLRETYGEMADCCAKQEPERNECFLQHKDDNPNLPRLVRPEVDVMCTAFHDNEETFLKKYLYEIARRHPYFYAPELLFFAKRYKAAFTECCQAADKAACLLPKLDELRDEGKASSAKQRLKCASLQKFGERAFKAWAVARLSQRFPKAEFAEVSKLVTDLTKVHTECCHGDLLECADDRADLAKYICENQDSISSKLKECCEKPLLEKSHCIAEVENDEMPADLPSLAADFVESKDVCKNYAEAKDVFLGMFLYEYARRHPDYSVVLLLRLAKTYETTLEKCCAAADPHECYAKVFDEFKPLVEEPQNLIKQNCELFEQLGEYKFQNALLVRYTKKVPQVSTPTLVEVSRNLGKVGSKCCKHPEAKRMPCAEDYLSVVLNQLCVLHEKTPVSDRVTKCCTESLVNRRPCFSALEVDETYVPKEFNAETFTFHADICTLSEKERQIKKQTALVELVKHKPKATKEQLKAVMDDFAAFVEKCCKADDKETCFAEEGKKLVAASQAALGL
# Protocol: The differential scanning calorimetric measurements were carried out using VP-DSC microcalorimeter (MicroCal, Northampton, MA). The buffer and protein solutions were degassed under mild vacuum prior to the experiment. Samples were prepared in 20 mM sodium phosphate buffer, pH 7.4. […] 1∶0, 1∶5, and 1∶10 were performed from 25 to 90°C at a scan rate of 0.5°C/min. Data were analyzed using Origin software provided with the instrument to obtain the temperature at the midpoint of the unfolding transition (T m) and calorimetric enthalpy (ΔH°).
# [4] = molecular target: T1, Human serum albumin (HSA); assay: Steady state fluorescence quenching of HSA by HA; format: binding; conditions: for KSV (Stern-Volmer quenching constant) / n (binding sites): pH 7.4, HSA 5 µM; for TΔS°: van't Hoff
# Protocol: Fluorescence emission spectra were recorded in range of 300–400 nm on a Shimadzu 5301PC fluorescence spectrophotometer equipped with water circulator (Julabo Eyela) at excitation wavelength of 295 nm. Both the excitation and emission slits were set at 3 nm. […] Respective blanks were subtracted. […] Furthermore if a quencher, Q, form complex, Q n B, with protein B and have ‘n’ multiple (equivalent and independent) binding sites then quenching reaction is often represented as: [drawing 5] (2) and its binding constant (Kb ) is given by equation 3:[18]
# [drawing 6] (3) If the total amount of protein (with and without bound Q) is [B o], then [drawing 7] (4) [drawing 8] (5) where [B] is the concentration of the unbound protein. The fluorescence intensity is proportional to the protein concentration as described below: [drawing 9] (6) then, relationship between the fluorescence intensity and unbound protein is expressed as:
# [drawing 10] (7) So, if the formation of a nonfluorescent fluorophore–quencher complex occurs, then, the value of K b can be obtained by using equation 7.
# [5] = molecular target: T1, Human serum albumin (HSA); assay: Esterase-like activity of HSA toward p-NPA in presence of HA; format: biochemical
# [6] = molecular target: T1, Human serum albumin (HSA); assay: Binding displacement measurement using site markers (fluorescence, Stern-Volmer); conditions: protein:marker 1:1
# Protocol: Different site markers warfarin (WAR) for site I and diazepam (DIA) for site II [19], [20] were used for performing displacement experiments. […] The fluorescence emission spectra were recorded as mentioned in fluorescence measurements and the binding constant values of drug–protein–marker were evaluated using Stern–Volmer equation.
# [7] = molecular target: T1, Human serum albumin (HSA); assay: Isothermal titration calorimetry (ITC), sequential model of two binding sites; conditions: for van't Hoff enthalpy: equation 12; for ΔCP (change in heat capacity): 25-37 °C
# Protocol: Prior to the titration experiment, all solutions were degassed properly on a thermovac. The 1.44 mL sample and reference cell of the calorimeter were loaded with HSA and 20 mM sodium phosphate buffer (pH 7.4), respectively. […] The reference power was set at 16 µcal s^−1. […] Heats of dilution for the ligand and protein were subtracted from the integrated data before curve fitting. The data were fitted and analyzed with a sequential model of two binding sites using Origin 7.0 provided with the MicroCal instrument. Association constant (K b) and standard enthalpy change (ΔH°) were directly obtained after fitting while ΔG° was calculated from equation 8. The ΔS ^o was calculated using the equation: [drawing 13] (10) and change in specific heat capacity can be calculated from the equation:
# [drawing 14] (11) Further the standard van’t Hoff enthalpy [drawing 15] at each temperature was calculated using equation: [drawing 16] (12) here, K(T1) and K(T2) are the values of binding constant at temperatures T 1 and T 2 respectively.
smiles,measurement,setting,value
"O=C(O)CNC(=O)c1ccccc1 [HA, hippuric acid]",concentration of HA,[1]; healthy individual,less than 5 mg/L
same,concentration of HA,[1]; patients with end-stage renal disease,higher than 247±112 mg/L
same,elimination of HA through hemodialysis,[2],64%
same,Tm of first sub-transition of HSA (head drawing C00030),"[3]; HSA:HA 1∶5, HSA 18 µM",57.25±0.01 °C
same,Tm of second sub-transition of HSA (head drawing C00031),"[3]; HSA:HA 1∶5, HSA 18 µM",62.51±0.09 °C
same,Tm of third sub-transition of HSA (head drawing C00032),"[3]; HSA:HA 1∶5, HSA 18 µM",73.87±0.04 °C
same,ΔH° of first sub-transition (head drawing C00033),"[3]; HSA:HA 1∶5, HSA 18 µM",54.41 ± 0.10 kcal/mol
same,ΔH° of second sub-transition (head drawing C00034),"[3]; HSA:HA 1∶5, HSA 18 µM",56.13 ± 0.12 kcal/mol
same,ΔH° of third sub-transition (head drawing C00035),"[3]; HSA:HA 1∶5, HSA 18 µM",13.92 ± 0.07 kcal/mol
same,Tm of first sub-transition of HSA (head drawing C00030),"[3]; HSA:HA 1∶10, HSA 18 µM",58.36±0.08 °C
same,Tm of second sub-transition of HSA (head drawing C00031),"[3]; HSA:HA 1∶10, HSA 18 µM",63.83±0.02 °C
same,Tm of third sub-transition of HSA (head drawing C00032),"[3]; HSA:HA 1∶10, HSA 18 µM",73.96±0.03 °C
same,ΔH° of first sub-transition (head drawing C00033),"[3]; HSA:HA 1∶10, HSA 18 µM",68.47 ± 0.80 kcal/mol
same,ΔH° of second sub-transition (head drawing C00034),"[3]; HSA:HA 1∶10, HSA 18 µM",57.37 ± 0.60 kcal/mol
same,ΔH° of third sub-transition (head drawing C00035),"[3]; HSA:HA 1∶10, HSA 18 µM",13.90 ± 0.09 kcal/mol
same,k q (bimolecular rate constant),[4]; 25 °C,(1.36±0.06 ) ×10^12 M^−1 s^−1
same,ΔG°,[4]; 25 °C,-5.21 ± 0.02 kcal/mol
same,KSV (Stern-Volmer quenching constant),[4]; 25 °C,(7.80±0.36) ×10^3 M^−1
same,n (binding sites),[4]; 25 °C,0.98±0.02
same,TΔS°,[4]; 25 °C,-23.48 ± 0.24 kcal/mol
same,k q (bimolecular rate constant),[4]; 30 °C,(5.77±0.03 ) ×10^11 M^−1 s^−1
same,ΔG°,[4]; 30 °C,-4.88 ± 0.06 kcal/mol
same,KSV (Stern-Volmer quenching constant),[4]; 30 °C,(3.30±0.02) ×10^3 M^−1
same,n (binding sites),[4]; 30 °C,0.99±0.01
same,TΔS°,[4]; 30 °C,-23.88 ± 0.24 kcal/mol
same,k q (bimolecular rate constant),[4]; 37 °C,(2.29±0.01 ) ×10^11 M^−1 s^−1
same,ΔG°,[4]; 37 °C,-4.28 ± 0.01 kcal/mol
same,KSV (Stern-Volmer quenching constant),[4]; 37 °C,(1.31±0.08) ×10^3 M^−1
same,n (binding sites),[4]; 37 °C,0.97±0.02
same,TΔS°,[4]; 37 °C,-24.43 ± 0.25 kcal/mol
same,K b (order of magnitude),"[4]; spectroscopic results, single site",~10^3
same,Vmax for hydrolysis of p-NPA by HSA,"[5]; HSA:HA 1∶0.5, HSA 15 µM, 25 °C",0.16 ± 0.02 µM/s
same,Vmax for hydrolysis of p-NPA by HSA,"[5]; HSA:HA 1∶1, HSA 15 µM, 25 °C",0.16 ± 0.01 µM/s
same,Vmax for hydrolysis of p-NPA by HSA,"[5]; HSA:HA 1∶2, HSA 15 µM, 25 °C",0.16 ± 0.02 µM/s
same,Vmax for hydrolysis of p-NPA by HSA,"[5]; HSA:HA 1∶3, HSA 15 µM, 25 °C",0.16 ± 0.01 µM/s
same,Ki,"[5]; competitive, substrate p-NPA, 25 °C, read-out: K i (inhibitor constant) for esterase-like activity of HSA",21.7 µM
same,Mode of inhibition of esterase-like activity of HSA,[5]; substrate p-NPA,competitively
same,K sv of HSA-HA in presence of site marker,[6]; in presence of DIA (site II marker),(2.03±0.03)× 10^3 M^−1
same,K sv of HSA-HA in presence of site marker,[6]; in presence of WAR (site I marker),(2.74±0.04)×10^3 M^−1
same,van't Hoff enthalpy,"[7]; 25 °C, high affinity site",-11.98 kcal/mol
same,van't Hoff enthalpy,"[7]; 25 °C, low affinity site",-24.69 kcal/mol
same,ΔG°,"[7]; High affinity site, 25 °C",-6.05 ± 0.10 kcal/mol
same,ΔH°,"[7]; High affinity site, 25 °C",-4.41 ± 0.46 kcal/mol
same,TΔS°,"[7]; High affinity site, 30 °C",0.76 ± 0.06 kcal/mol
same,ΔG°,"[7]; High affinity site, 30 °C",-5.94 ± 0.01 kcal/mol
same,ΔH°,"[7]; High affinity site, 30 °C",-5.18 ± 0.07 kcal/mol
same,TΔS°,"[7]; High affinity site, 37 °C",-0.20 ± 0.01 kcal/mol
same,ΔG°,"[7]; High affinity site, 37 °C",-5.93 ± 0.02 kcal/mol
same,ΔH°,"[7]; High affinity site, 37 °C",-6.14 ± 0.15 kcal/mol
same,TΔS°,"[7]; Low affinity site, 25 °C",-2.88 ± 0.40 kcal/mol
same,ΔG°,"[7]; Low affinity site, 25 °C",-4.69 ± 0.10 kcal/mol
same,ΔH°,"[7]; Low affinity site, 25 °C",-7.58 ± 0.96 kcal/mol
same,TΔS°,"[7]; Low affinity site, 30 °C",-5.39 ± 0.35 kcal/mol
same,ΔG°,"[7]; Low affinity site, 30 °C",-4.35 ± 0.02 kcal/mol
same,ΔH°,"[7]; Low affinity site, 30 °C",-9.74 ± 0.34 kcal/mol
same,TΔS°,"[7]; Low affinity site, 37 °C",-6.69 ± 0.36 kcal/mol
same,ΔG°,"[7]; Low affinity site, 37 °C",-4.41 ± 0.03 kcal/mol
same,ΔH°,"[7]; Low affinity site, 37 °C",-11.11 ± 0.69 kcal/mol
same,K b (order of magnitude),[7]; high affinity site,~10^4
same,ΔCP (change in heat capacity),[7]; high affinity site,−0.14±0.11 kcal mol^−1°C^−1
same,K b (order of magnitude),[7]; low affinity site,~10^3
same,ΔCP (change in heat capacity),[7]; low affinity site,−0.28±0.24 kcal mol^−1°C^−1
